Assay results published in patent US20210163357A1, “Composition comprising at least one microorganism and use thereof” (Evonik Operations GmbH, priority 2018, published 2021).

Tests used:
Assay type in all cases: cell-based
[1] = system: Bacillus subtilis DSM 32315; assay: Compatibility of spores with additives on agar plates; conditions: neopentyl glycol 7 g/L, Protectosil WS405 20 g/L
Procedure: For spores of the strain Bacillus subtilis DSM 32315 compatibility with neopentyl glycol (7 g/L) and Protectosil® WS405 (20 g/L) was investigated on agar plates. A mixture of 3 g of meat extract, 5 g of peptone from casein and 1000 mL of distilled water adjusted to pH 7 using HCl/NaOH was used as medium.

[2] = system: Bacillus pseudofirmus (DSM 8715); assay: Compatibility of microorganisms with hydrophobizing agent and shrinkage reducer, liquid culture, turbidity; conditions: WS405 5, 20 or 30 g/L; neopentyl glycol 0.7, 7 or 14 g/L; 4 days, 30° C.
Procedure: (§1) The strains Bacillus subtilis (DSM 10) and Bacillus pseudofirmus (DSM 8715) were investigated for compatibility with hydrophobizing agents and shrinkage reducers.
(§2) A mixture of 3 g of meat extract, 5 g of peptone from casein and 1000 mL of distilled water adjusted to pH 7 using HCl/NaOH for Bacillus subtilis (DSM 10) and adjusted to pH 7 using Na sesquicarbonate for Bacillus pseudofirmus (DSM 8715) was used as the medium.
(§3) A pre-culture was initially produced for each of the two strains: To this end, an inoculation dose of the spores was in each case placed into a culture tube with 8 mL of the respective medium and left overnight in a laboratory shaker at 30° C. and 200 revolutions per minute. Furthermore, aqueous stock solutions respectively having a concentration of Protectosil® WS405 (hydrophobizing agent) of 500 g/L and a concentration of neopentyl glycol (shrinkage reducer) of 280 g/L were produced.
(§4) For the main cultures two 6-well spot plates were each filled with 8 mL of medium. Then, 10 μL of the first pre-culture were added to each well of the first plate and 10 μL of the second pre-culture were added to each well of the second plate. […]

[3] = system: Bacillus subtilis (DSM 10); assay: as above; conditions: WS405 5, 20 or 30 g/L; neopentyl glycol 0.7, 7 or 14 g/L; 4 days, 30° C.
Procedure: as §1, §2, §3, §4

## CC(C)(CO)CO [neopentyl glycol]
[1]
  formation of colonies in presence of additive: Formation of colonies was observed in all cases
[2]
  growth of microorganism in presence of additive (turbidity): growth of neither organism was impaired
[3]
  growth of microorganism in presence of additive (turbidity): growth of neither organism was impaired
